Data set [1] concerns mouse model of coma following head injury. Description: Evaluation of disturbance-of-consciousness improving effect in a mouse model of coma following head injury. It is filed as in vivo. The conditions noted are these: Oral, 30 mg/kg.
The target in data set [2] is sigma receptor. Description: Binding affinity for the sigma receptor ([3H]-DTG binding test). Also on record: species or system Wistar strain male rat. The conditions noted are these: [3H]-DTG 3 nM, rat whole brain membrane, 25° C., 60 minutes; ± SED; read-out: Inhibitory activity IC50. As to the method: Binding affinity for the sigma receptor
A membrane fraction was prepared and a [^3 H]-1,3-di[2-tolyl]guanidine (DTG) binding test was performed, both by the method of Wettstein et al. [Wettstein, J. F., Romman, F. J., Rocher, M. N. and Junien, J. L., Psychopharmacology, 104, 157-163 (1991)]. Thus, a Wistar strain male rat was decapitated and the whole brain was excised and homogenized in 30 volumes of ice-cooled 50 mM Tris hydrochloride buffer (pH 7.4). The homogenate was then centrifuged at 4° C. and 50,000 g for 15 minutes. The sediment obtained was suspended in one volume of the same buffer as mentioned above and, after 45 minutes of incubation at 37° C., the suspension was centrifuged again. The sediment obtained was suspended in one volume of the same buffer and the suspension was stored frozen at -80° C. until use.
The binding experiment was performed as follows. […]
The filter was transferred to a vial and after addition of 5 ml of a liquid scintillation cocktail (Aquasol 2), the vial was allowed to stand in the dark for a predetermined time. The radioactivity was then measured using a scintillation counter. The amount of specific binding was determined by subtracting the binding amount in the presence of 10 μM haloperidol from the total binding amount. The IC50 values were calculated by computer analysis using the nonlinear least squares method.

For data set [3], the system named is sigma receptor. The experiment in a line: Antagonistic experiment with sigma receptor antagonists on the disturbance-of-consciousness improving effect. In kind it is in vivo. Particulars: 10 mg/kg, alone. As to the method:
Antagonistic experiment with sigma receptor antagonists
Whether the improving effect of sigma receptor agonists on impaired consciousness is due to their effect on specific receptors was investigated using test compounds 14 and 15 which are sigma receptor antagonists. […] Similarly, the disturbance-of-consciousness improving effect of test compounds 10 and 12 was inhibited by 30 mg of another sigma receptor antagonist test compound 15.

For data set [4] the following is noted: literature; cited from earlier work.
For data set [5] the following is noted: literature (Brain and Nerve, 39:983-990, 1987); cited from earlier work.
For the next data set, the system named is sigma receptors. Particulars: cited from earlier work.

Where two headings read alike, the source gives them in different places.

What is called IC50 is the concentration that gives 50% inhibition.

For the molecule `COc1cccc(N2CCN(CCCN3C(=O)CCc4c(Cl)cccc43)CC2)c1` [Example 2], in data set [1], the “RR time (time to recovery of righting reflex)” value is listed as 28 % of control and the “SM time (time to recovery of spontaneous mobility)” value is given as 28 % of control. Further, the IC50 at sigma receptor [2] amounted to 130 ± 16 nM.

As for `COc1cccc2c1CCC(=O)N2CCCN1CCN(c2cccc(Cl)c2)CC1.Cl` [Test compound 1, 1-{3-[4-(3-Chlorophenyl)-1-piperazinyl]propyl}-5-methoxy-3,4-dihydrocarbostyril hydrochloride], in data set [1], the “RR time (time to recovery of righting reflex)” value is listed as 20 % of control and the “SM time (time to recovery of spontaneous mobility)” value is reported as 20 % of control. Moreover, the IC50 at sigma receptor [2] amounted to 340 ± 110 nM. In the data set on sigma receptor [3], this molecule displayed an RR time of 32 % control and an SM time of 38 % control.

In the case of `CC(=O)OCC[N+](C)(C)C` [acetylcholine], in data set [4], the side effects result is recorded as “serious side effects”.

For `O=C(CCCN1CCC(O)(c2ccc(Cl)cc2)CC1)c1ccc(F)cc1` [haloperidol], the “effect on impaired consciousness” value in data set [5] is “delays recovery from coma”. Also, the “affinity for sigma receptors” value in the data set with sigma receptors is reported as “have affinities for these receptors”. Moreover, the side effects entry in data set [4] is “dystonia”.

As for `CN[C@@H](C)Cc1ccccc1` [methamphetamine], the “effect on impaired consciousness” value in data set [5] is given as “improves impaired consciousness”. Also, the side effects entry in data set [4] was “may produce an addictive behavior as well as schizophrenic responses such as hallucinations and delusion”.

As to `CC[C@@H](CO)NC(=O)[C@@H]1C=C2c3cccc4c3c(cn4C)C[C@H]2N(C)C1` [methysergide], the “effect on impaired consciousness” value in data set [5] is given as “improves impaired consciousness”.

Regarding `c1ccc(C2(N3CCCCC3)CCCCC2)cc1` [phencyclidine], the “affinity for sigma receptors” value in the data set on sigma receptors (literature) is “having an affinity for sigma receptors”. Further, the side effects entry in data set [4] was “induces schizophrenic responses such as hallucinations and delusion”.

`CNC(=O)Oc1ccc2c(c1)[C@]1(C)CCN(C)[C@@H]1N2C` [physostigmine]: the “effect on impaired consciousness” value in data set [5] is “effective in improving disturbances of consciousness at low non-toxic doses”.

(Values after US5556857A, “Disturbance-of-consciousness improving agent” (priority 1991, dated 1996).)
